This assay concerns the target C5 (Homo sapiens, UniProt P01031). As to the kind of experiment: Human hemolysis assay (RBC lysis assay using complete human sera). The class given is cell-based. Details: with complete human sera (Complement Technology, Tyler Tex.) and polypeptides; tissue Complement Technology, Tyler Tex; host or cells: complete human serum.
Where [1] appears, read: inhibition of lysis of antibody-sensitized sheep erythrocytes, complete human sera.

pIC50: −log10 of the molar value. Starred links: 1 amine or outer side, 2 acyl side, 3 side chain; linkers in the order of their positions; H or OH if unused. Positions of bridges follow the written chain, without caps; N, C: chain ends. Non-standard residues stand in square brackets, D forms with d. Residues, ends and D or L forms follow the SMILES beside them. Trp(7-aza) = N[C@@H](Cc1c[nH]c2ncccc12)C(=O)O; Trp(1-Me) = Cn1cc(C[C@H](N)C(=O)O)c2ccccc21; Phe(3-Cl) = N[C@@H](Cc1cccc(Cl)c1)C(=O)O; Phg(2-OMe) = COc1ccccc1[C@H](N)C(=O)O; mXylylene = c1cc(C[*:1])cc(C[*:2])c1; dPhg = N[C@@H](C(=O)O)c1ccccc1; Chg = N[C@H](C(=O)O)C1CCCCC1; Phg = N[C@H](C(=O)O)c1ccccc1; Tle = CC(C)(C)[C@H](N)C(=O)O; NMeS = CN[C@@H](CO)C(=O)O; hCys = N[C@@H](CCS)C(=O)O; Nva = CCC[C@H](N)C(=O)O A value given as a limit tells only on which side of the number the result lay.

14 molecules from patent US10208089B2, “Modulation of complement activity” (priority 2014, dated 2019) can be followed below.

Chain of C5 (P01031 19-1676): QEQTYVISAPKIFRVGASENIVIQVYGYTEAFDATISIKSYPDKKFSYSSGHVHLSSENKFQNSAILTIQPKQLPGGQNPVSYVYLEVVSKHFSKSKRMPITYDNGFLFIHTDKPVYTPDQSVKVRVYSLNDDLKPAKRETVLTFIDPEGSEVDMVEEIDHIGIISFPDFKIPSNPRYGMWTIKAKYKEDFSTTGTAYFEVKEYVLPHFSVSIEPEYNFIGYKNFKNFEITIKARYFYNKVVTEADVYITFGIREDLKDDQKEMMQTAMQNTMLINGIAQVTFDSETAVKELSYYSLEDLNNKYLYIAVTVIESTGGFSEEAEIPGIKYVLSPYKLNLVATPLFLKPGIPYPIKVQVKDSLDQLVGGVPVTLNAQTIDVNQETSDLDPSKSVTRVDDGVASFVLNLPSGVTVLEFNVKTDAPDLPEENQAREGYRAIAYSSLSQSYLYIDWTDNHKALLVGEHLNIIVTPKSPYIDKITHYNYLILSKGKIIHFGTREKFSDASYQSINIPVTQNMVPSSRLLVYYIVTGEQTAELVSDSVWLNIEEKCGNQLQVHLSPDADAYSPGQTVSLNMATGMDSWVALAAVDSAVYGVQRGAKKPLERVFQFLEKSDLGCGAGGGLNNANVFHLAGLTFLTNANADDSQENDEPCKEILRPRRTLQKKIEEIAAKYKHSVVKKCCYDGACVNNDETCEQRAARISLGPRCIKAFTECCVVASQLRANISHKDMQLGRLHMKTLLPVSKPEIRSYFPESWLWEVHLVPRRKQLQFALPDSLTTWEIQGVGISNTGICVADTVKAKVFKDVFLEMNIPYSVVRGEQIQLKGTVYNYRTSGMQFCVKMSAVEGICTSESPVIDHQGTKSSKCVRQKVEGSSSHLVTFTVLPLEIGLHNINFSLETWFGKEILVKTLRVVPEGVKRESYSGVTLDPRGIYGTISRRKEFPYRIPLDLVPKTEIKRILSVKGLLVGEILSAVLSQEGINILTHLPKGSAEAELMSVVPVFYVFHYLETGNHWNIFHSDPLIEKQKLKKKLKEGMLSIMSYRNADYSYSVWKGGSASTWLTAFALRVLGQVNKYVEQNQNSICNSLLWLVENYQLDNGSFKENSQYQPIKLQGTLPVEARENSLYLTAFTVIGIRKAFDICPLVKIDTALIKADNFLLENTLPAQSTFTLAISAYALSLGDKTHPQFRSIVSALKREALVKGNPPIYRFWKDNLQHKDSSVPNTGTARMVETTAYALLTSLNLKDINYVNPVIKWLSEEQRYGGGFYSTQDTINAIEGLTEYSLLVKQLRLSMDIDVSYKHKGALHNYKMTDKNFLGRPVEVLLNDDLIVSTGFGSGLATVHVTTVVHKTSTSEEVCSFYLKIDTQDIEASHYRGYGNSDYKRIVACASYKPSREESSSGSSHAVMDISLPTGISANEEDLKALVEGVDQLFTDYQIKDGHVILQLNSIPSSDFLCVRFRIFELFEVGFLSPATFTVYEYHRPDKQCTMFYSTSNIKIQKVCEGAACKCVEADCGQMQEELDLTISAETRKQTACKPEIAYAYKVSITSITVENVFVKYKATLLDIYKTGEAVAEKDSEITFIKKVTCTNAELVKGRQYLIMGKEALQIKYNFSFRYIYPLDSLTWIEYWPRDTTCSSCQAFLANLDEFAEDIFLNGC

For `CC(=O)N[C@H]1CSCc2cccc(c2)CSC[C@@H](C(=O)N[C@H](C(=O)N[C@@H](Cc2ccc(O)cc2)C(=O)N[C@@H](Cc2c[nH]c3ccccc23)C(=O)N[C@@H](CCC(=O)O)C(=O)N[C@@H](Cc2ccccc2)C(N)=O)C(C)C)NC(=O)[C@H](Cc2ccccc2)NC(=O)[C@H](CCCNC(=N)N)NC(=O)[C@H](CCC(=O)O)NC(=O)[C@H](C(C)C)NC1=O` [Compound R3124, [mXylyl(1,6)]Ac-C-V-E-R-F-C-V-Y-W-E-F-NH2] (Ac-CVERFCVYWEF-NH2; linker 1-6 via mXylylene), the negative-log IC50 (pIC50) is, setting by setting: under setting [1], less than 4.00; (variants of R3021 with internal amino acid deletions, inhibition of red blood cell lysis) less than 4.00. In addition, the “ability to inhibit red blood cell lysis compared with the parent polypeptide (in words)” value (variants of R3021, R3002 or R3008) is reported as “decrease in the ability”. For `CCC[C@H](NC(=O)[C@@H]1CSCc2cccc(c2)CSC[C@H](NC(=O)[C@H](CCC)NC(C)=O)C(=O)N[C@@H](c2ccccc2)C(=O)N[C@@H]([C@@H](C)O)C(=O)N[C@@H](Cc2cn(C)c3ccccc23)C(=O)N[C@@H](CCC(=O)O)C(=O)N[C@@H](Cc2ccc(O)cc2)C(=O)N(C)[C@@H](CO)C(=O)N[C@@H](C)C(=O)N1)C(N)=O` [Compound R3109, [mXylyl(2,10)]Ac-Nvl-C-Phg-T-(1-Me-W)-E-Y-(N-Me)S-A-C-Nvl-NH2] (Ac-[Nva]C[Phg]T[Trp(1-Me)]EY[NMeS]AC[Nva]-NH2; linker 2-10 via mXylylene), the pIC50 is less than 4.00 (7-azatryptophan variant polypeptides of R3008, inhibition of red blood cell lysis) and less than 4.00 under setting [1]. On to `CCC[C@H](NC(=O)[C@H](NC(=O)[C@@H]1CCCN1C(=O)[C@H](Cc1ccc(O)cc1)NC(=O)[C@H](CCC(=O)O)NC(=O)[C@H](Cc1c[nH]c2ncccc12)NC(=O)[C@H](Cc1ccc(O)cc1)NC(=O)[C@@H](NC(=O)[C@H](CC(=O)O)NC(=O)[C@@H]1CSCc2cccc(c2)CSC[C@H](NC(C)=O)C(=O)N[C@@H](C(C)C)C(=O)N[C@@H](CCC(=O)O)C(=O)N[C@@H](CCCNC(=N)N)C(=O)N[C@@H](C)C(=O)N1)C(C)(C)C)c1ccccc1)C(N)=O` [Compound R3156, [mXylyl(1,6)]Ac-C-V-E-R-A-C-D-Tbg-Y-azaTrp-E-Y-P-(D-Phg)-Nvl-NH2] (Ac-CVERACD[Tle]Y[Trp(7-aza)]EYP[dPhg][Nva]-NH2; linker 1-6 via mXylylene), for which the pIC50 under setting [1] was less than 5.00. On the same count and under the same terms, the same measure for `CCC[C@H](NC(=O)[C@@H]1CSCc2cccc(c2)CSC[C@H](NC(=O)[C@H](CCC(=O)O)NC(=O)[C@H](Cc2ccc(O)cc2)NC(=O)[C@H](CO)NC(=O)[C@H](CCC)NC(C)=O)C(=O)N[C@@H](C(C)(C)C)C(=O)N[C@@H](Cc2ccc(O)cc2)C(=O)N[C@@H](Cc2c[nH]c3ncccc23)C(=O)N[C@@H](CCC(=O)O)C(=O)N[C@@H](Cc2ccc(O)cc2)C(=O)N2CCC[C@H]2C(=O)N[C@@H](C2CCCCC2)C(=O)N1)C(N)=O` [Compound R3086, [mXylyl(5,13)]Ac-Nvl-S-Y-E-C-Tbg-Y-azaTrp-E-Y-P-Chg-C-Nvl-NH2] (Ac-[Nva]SYEC[Tle]Y[Trp(7-aza)]EYP[Chg]C[Nva]-NH2; linker 5-13 via mXylylene): less than 4.30; for `CCC[C@H](NC(=O)[C@@H](NC(=O)[C@@H]1CCCN1C(=O)[C@H](Cc1ccc(O)cc1)NC(=O)[C@H](CCC(=O)O)NC(=O)[C@H](Cc1c[nH]c2ncccc12)NC(=O)[C@H](Cc1ccc(O)cc1)NC(=O)[C@@H](NC(=O)[C@H](C)NC(=O)[C@@H]1CSCc2cccc(c2)CSC[C@H](NC(C)=O)C(=O)N[C@@H](C(C)C)C(=O)N[C@@H](CCC(=O)O)C(=O)N[C@@H](CCCNC(=N)N)C(=O)N[C@@H](Cc2ccccc2)C(=O)N1)C(C)(C)C)c1ccccc1)C(N)=O` [Compound R3157, [mXylyl(1,6)]Ac-C-V-E-R-F-C-A-Tbg-Y-azaTrp-E-Y-P-Phg-Nvl-NH2] (Ac-CVERFCA[Tle]Y[Trp(7-aza)]EYP[Phg][Nva]-NH2; linker 1-6 via mXylylene): 7.07; for `CCC[C@H](NC(=O)[C@@H]1CSCc2cccc(c2)CSC[C@H](NC(=O)[C@H](CCC)NC(C)=O)C(=O)N[C@@H](c2ccccc2OC)C(=O)N[C@@H]([C@@H](C)O)C(=O)N[C@@H](Cc2c[nH]c3ncccc23)C(=O)N[C@@H](CCC(=O)O)C(=O)N[C@@H](Cc2ccc(O)cc2)C(=O)N(C)[C@@H](CO)C(=O)N[C@@H](Cc2c[nH]cn2)C(=O)N1)C(N)=O` [Compound R3087, [mXylyl(2,10)]Ac-Nvl-C-(2-OMe)Phg-T-azaTrp-E-Y-(N-Me)S-H-C-Nvl-NH2] (Ac-[Nva]C[Phg(2-OMe)]T[Trp(7-aza)]EY[NMeS]HC[Nva]-NH2; linker 2-10 via mXylylene): less than 4.60.

`CCC[C@H](NC(C)=O)C(=O)N[C@H]1CSCc2cccc(c2)CSC[C@@H](C(=O)N(C)[C@@H](CO)C(=O)N[C@H](C(=O)N[C@@H](CCCCN)C(=O)N[C@@H](Cc2c[nH]c3ncccc23)C(=O)N[C@@H](CCC(=O)O)C(=O)N[C@@H](Cc2ccc(O)cc2)C(N)=O)C(C)(C)C)NC(=O)[C@H](Cc2ccc(O)cc2)NC(=O)[C@H](c2ccccc2)NC(=O)[C@H](CCC(=O)O)NC(=O)[C@H](CCCCN)NC1=O` [Compound R3007, [mXylyl(2,7)]Ac-Nvl-C-K-E-Pbg-Y-C-(N-Me)S-Tbg-K-azaTrp-E-Y-NH2] (Ac-[Nva]CKE[Phg]YC[NMeS][Tle]K[Trp(7-aza)]EY-NH2; linker 2-7 via mXylylene): the pIC50 under setting [1] is 6.50. On the same count and under the same terms, the same measure for `CCC[C@H](NC(=O)[C@@H]1CSCc2cccc(c2)CSC[C@H](NC(=O)[C@H](CCC)NC(C)=O)C(=O)N[C@@H](c2ccccc2)C(=O)N[C@@H]([C@@H](C)O)C(=O)N[C@@H](Cc2c[nH]c3ncccc23)C(=O)N[C@@H](CCC(=O)O)C(=O)N[C@@H](Cc2ccc(O)cc2)C(=O)N[C@@H](CO)C(=O)N[C@@H](C)C(=O)N1)C(N)=O` [Compound R3084, [mXylyl(2,10)]Ac-Nvl-C-Phg-T-azaTrp-E-Y-S-A-C-Nvl-NH2] (Ac-[Nva]C[Phg]T[Trp(7-aza)]EYSAC[Nva]-NH2; linker 2-10 via mXylylene): less than 4.00; for `CCC[C@H](NC(=O)[C@@H]1CCSCc2cccc(c2)CSC[C@H](NC(=O)[C@H](CCC)NC(C)=O)C(=O)N[C@@H](c2ccccc2)C(=O)N[C@@H]([C@@H](C)O)C(=O)N[C@@H](Cc2c[nH]c3ncccc23)C(=O)N[C@@H](CCC(=O)O)C(=O)N[C@@H](Cc2ccc(O)cc2)C(=O)N(C)[C@@H](CO)C(=O)N[C@@H](Cc2c[nH]cn2)C(=O)N1)C(N)=O` [Compound R3105, [mXylyl(2,10)]Ac-Nvl-C-Phg-T-azaTrp-E-Y-(N-Me)S-H-homoC-Nvl-NH2] (Ac-[Nva]C[Phg]T[Trp(7-aza)]EY[NMeS]H[hCys][Nva]-NH2; linker 2-10 via mXylylene): less than 5.30; for `CCC[C@H](NC(=O)[C@@H]1CSCc2cccc(c2)CSC[C@H](NC(=O)[C@H](CCC)NC(C)=O)C(=O)N[C@@H](c2ccccc2)C(=O)N[C@@H]([C@@H](C)O)C(=O)N[C@@H](Cc2c[nH]c3ncccc23)C(=O)N[C@@H](CCC(=O)O)C(=O)N[C@@H](C)C(=O)N(C)[C@@H](CO)C(=O)N[C@@H](Cc2c[nH]cn2)C(=O)N1)C(N)=O` [Compound R3036, [mXylyl(2,10)]Ac-Nvl-C-Phg-T-azaTrp-E-A-(N-Me)S-H-C-Nvl-NH2] (Ac-[Nva]C[Phg]T[Trp(7-aza)]EA[NMeS]HC[Nva]-NH2; linker 2-10 via mXylylene): less than 4.30. In the case of `CCC[C@H](NC(C)=O)C(=O)N[C@@H](CS)C(=O)N[C@@H](Cc1ccc(O)cc1)C(=O)N[C@@H](CC(N)=O)C(=O)N[C@@H](CC(N)=O)C(=O)N[C@H](C(=O)N[C@@H](CCC(=O)O)C(=O)N[C@@H](Cc1c[nH]c2ncccc12)C(=O)N[C@@H](CCC(=O)O)C(=O)N[C@@H](CS)C(=O)N1CCC[C@H]1C(=O)N[C@H](C(=O)N[C@H](C(N)=O)C(C)(C)C)c1ccccc1)C(C)(C)C` [Compound R3126, Ac-Nvl-C-Y-N-N-Tbg-E-azaTrp-E-C-P-Phg-Tbg-NH2] (Ac-[Nva]CYNN[Tle]E[Trp(7-aza)]ECP[Phg][Tle]-NH2), the pIC50 under setting [1] was less than 5.52. With `CC(=O)N[C@H]1CSCc2cccc(c2)CSC[C@@H](C(=O)N[C@@H](CC(=O)O)C(=O)N[C@H](C(=O)N[C@@H](Cc2ccc(O)cc2)C(=O)N[C@@H](Cc2c[nH]c3ccccc23)C(=O)N[C@@H](CCC(=O)O)C(=O)N[C@@H](Cc2ccccc2)C(=O)N2CCC[C@H]2C(N)=O)C(C)C)NC(=O)[C@H](Cc2ccccc2)NC(=O)[C@H](CCCNC(=N)N)NC(=O)[C@H](CCC(=O)O)NC(=O)[C@H](C(C)C)NC1=O` [Compound R3141, [mXylyl(1,6)]Ac-C-V-E-R-F-C-D-V-Y-W-E-F-P-NH2] (Ac-CVERFCDVYWEFP-NH2; linker 1-6 via mXylylene), the pIC50 under setting [1] is 7.61. Turning to `CCC[C@H](NC(=O)[C@@H]1CSCc2cccc(c2)CSC[C@H](NC(=O)[C@H](CCC)NC(C)=O)C(=O)N[C@@H](c2ccccc2)C(=O)N[C@@H]([C@@H](C)O)C(=O)N[C@@H](Cc2c[nH]c3ncccc23)C(=O)N[C@@H](CC(N)=O)C(=O)N[C@@H](Cc2ccc(O)cc2)C(=O)N(C)[C@@H](CO)C(=O)N[C@@H](C)C(=O)N1)C(N)=O` [Compound R3099, [mXylyl(2,10)]Ac-Nvl-C-Phg-T-azaTrp-N-Y-(N-Me)S-A-C-Nvl-NH2] (Ac-[Nva]C[Phg]T[Trp(7-aza)]NY[NMeS]AC[Nva]-NH2; linker 2-10 via mXylylene), the pIC50 under setting [1] is less than 4.00.

For `CCC[C@H](NC(=O)[C@@H]1CSCc2cccc(c2)CSC[C@H](NC(=O)[C@H](CCC)NC(C)=O)C(=O)N[C@@H](c2ccccc2)C(=O)N[C@@H]([C@@H](C)O)C(=O)N[C@@H](Cc2c[nH]c3ncccc23)C(=O)N[C@@H](CCC(=O)O)C(=O)N[C@@H](Cc2cccc(Cl)c2)C(=O)N(C)[C@@H](CO)C(=O)N[C@@H](C)C(=O)N1)C(N)=O` [Compound R3134, [mXylyl(2,10)]Ac-Nvl-C-Phg-T-azaTrp-E-(3-Cl-Phe)-(N-Me)S-A-C-Nvl-NH2] (Ac-[Nva]C[Phg]T[Trp(7-aza)]E[Phe(3-Cl)][NMeS]AC[Nva]-NH2; linker 2-10 via mXylylene), the pIC50 under setting [1] is less than 5.30.
